Experimental data published in US10150737B2, “Compounds for controlling arthropods” (priority 2013, dated 2018).

What was measured:
[1] = logP determination by HPLC on a reversed-phase column (C18); format: physicochemical; conditions: for logP^a): HPLC-MS method a)
Rhipicephalus sanguineus = Rhipicephalus sanguineus - in vitro contact tests with adult brown dog ticks; format: in vivo; conditions: after 48 h, ticks dead or moribund
Outline: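 Efficacy, scored after 48 h, is the % of adult ticks dead or moribund, i.e. unable to climb away on a 45-50° C hotplate within 5 min. Tubes held 5-10 ticks in the dark at room temperature, on an acetone-applied coating of 5 μg/cm^2 (900 ppm solution).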

Ctenocephalides felis [2] = assay: Ctenocephalides felis - in vitro contact tests with adult cat fleas; format: in vivo; conditions: application rate 5 μg/cm2 (=500 g/ha); after 48 h; fleas dead or moribund
Outline: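 Efficacy, as percentage of fleas dead or moribund, was scored at 48 h by knocking fleas to the tube base. Exposure was by contact with a dried acetone film of compound at 5 μg/cm^2 area dose; 5–10 adults per tube, room temperature, ambient humidity.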

Amblyomma hebraeum = assay: Amblyomma hebaraeum test (tick nymphs, immersion); format: in vivo; conditions: application rate 100 ppm; tick nymphs immersed one minute; after 42 days
Outline: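 Mortality (%) is read 42 days post-treatment, where 0% means no ticks and 100% all ticks killed. Nymphs were dipped for 1 min into the test dilution (DMSO stock diluted with water) and afterwards stored on filter paper under controlled climate.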

Boophilus microplus = Boophilus microplus - injection test; format: in vivo; conditions: application rate 20 μg/animal, injection into engorged adult female ticks, after 7 days
Outline: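 Five engorged adult female cattle ticks each received a 1 μl abdominal injection of compound solution in dimethyl sulphoxide. Fertile egg laying was assessed at 7 days, with doubtful eggs incubated about 42 days until hatch. 0% efficacy means all eggs fertile.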

[3] = tested on: Boophilus microplus Parkhurst strain, SP-resistant; assay: Boophilus microplus - dip test; format: in vivo; conditions: application rate 100 ppm; dip of engorged adult female ticks; after 7 days
Outline: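 Compound dissolved in DMSO, diluted with water, and used to fully wet groups of 8-10 engorged female cattle ticks (SP-resistant Parkhurst strain). Fertile egg laying assessed at 7 days, doubtful eggs held ~42 days until hatch; 0% means all eggs fertile.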

Ctenocephalides felis [4] = assay: Ctenocephalides felis - oral test; format: in vivo; conditions: application rate 100 ppm in citrated cattle blood; after 2 days
Outline: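 Roughly 20 unfed adult C. felis imbibe compound-dosed citrated cattle blood (DMSO formulation) across parafilm from a cylinder above their gauze chamber; percentage mortality recorded at day 2.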

Lucilia cuprina = Lucilia cuprina test; format: in vivo; conditions: application rate 100 ppm; L1 larvae; after 2 days
Outline: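 Mortality (%) of first-instar blowfly larvae, about 20 per vessel, recorded 2 days after exposure to compound-treated minced horsemeat. Compound dissolved in dimethyl sulphoxide, then water-diluted to the desired concentration.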

Musca domestica = Musca domestica test; format: in vivo; conditions: application rate 100 ppm; adult houseflies; after 2 days
Outline: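 First, 10 mg compound was taken up in 0.5 ml DMSO and then brought with water to the required concentration. This was applied with sugar solution to a sponge in vessels holding 10 adult flies; kill was assessed after 2 days.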

Myzus persicae = Myzus persicae - spray test; format: in vivo; conditions: Chinese cabbage leaf discs, after 6 days
Outline: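 Mortality of the green peach aphid, as % killed, was read 6 days after spraying infested Brassica pekinensis leaf discs. Compound formulated in acetone/dimethylformamide and made up with emulsifier-containing (1000 ppm) water.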

Phaedon cochleariae = Phaedon cochleariae - spray test; format: in vivo; conditions: larvae on Chinese cabbage leaf discs, after 7 days
Outline: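 Mortality of mustard beetle larvae was scored as % at day 7 on Brassica pekinensis leaf discs. Discs had been treated by spraying at the desired concentration, using an acetone/dimethylformamide solution diluted in water with 1000 ppm alkylaryl polyglycol ether, and dried before larvae were added.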

Spodoptera frugiperda = Spodoptera frugiperda - spray test; format: in vivo; conditions: caterpillars on maize leaf discs, after 7 days
Outline: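 Percent mortality of Spodoptera frugiperda caterpillars scored 7 days after placing them on dried maize leaf discs sprayed at the desired concentration. Spray formulation: compound dissolved in acetone/dimethylformamide, made up with water containing 1000 ppm emulsifier.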

Tetranychus urticae = Tetranychus urticae - spray test, OP-resistant; format: in vivo; conditions: bean leaf discs, after 6 days
Outline: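 Mortality (%) read on day 6 after spraying Phaseolus vulgaris leaf discs carrying all mite stages with formulations at the desired concentration. Formulation: active ingredient in acetone plus dimethylformamide, made up with emulsifier-containing water (1000 ppm alkylaryl polyglycol ether).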

[5] = reversed-phase column (C18), Table I-T3

SMILES | logP^a) [1] | logP^a) [1, 5] | efficacy (Rhipicephalus sanguineus; application rate 5 μg/cm2) [%] | efficacy (Ctenocephalides felis [2]) [%] | efficacy (kill) (Amblyomma hebraeum) [%] | efficacy (laying of fertile eggs) (Boophilus microplus) [%] | efficacy (laying of fertile eggs) [3] [%] | efficacy (kill) (Ctenocephalides felis [4]) [%] | efficacy (kill) (Lucilia cuprina) [%] | efficacy (kill) (Musca domestica) [%] | efficacy (Myzus persicae; application rate 100 g/ha) [%] | efficacy (Phaedon cochleariae; application rate 100 g/ha) [%] | efficacy (Spodoptera frugiperda; application rate 100 g/ha) [%] | efficacy (Tetranychus urticae; application rate 100 g/ha) [%] | efficacy (Myzus persicae; application rate 500 g/ha) [%] | efficacy (Phaedon cochleariae; application rate 500 g/ha) [%] | efficacy (Spodoptera frugiperda; application rate 500 g/ha) [%] | efficacy (Tetranychus urticae; application rate 500 g/ha) [%] | other results
Cc1cc(C(F)(C(F)(F)F)C(F)(F)F)cc(C)c1-n1cc(-c2ccc(Cl)c(C(=O)NC3(C#N)CC3)c2)cn1 [I-T3-3] | 4.2 | 4.2 | 100 | 100 | 100 | 100 | 100 | 100 | 100 | 100 | 100 | 100 | 100 | 100 | – | – | – | – | –
Cc1cc(C(F)(C(F)(F)F)C(F)(F)F)cc(C)c1-n1cc(-c2cnc(Cl)c(C(=O)NC3CC3)c2)cn1 [I-T3-20] | 3.8 | 3.8 | 100 | 100 | 100 | 100 | 100 | 100 | 100 | 100 | – | – | – | – | 100 | 100 | 100 | 100 | –
Cc1cc(C(F)(C(F)(F)F)C(F)(F)F)cc(C)c1-n1cc(-c2cnc(Cl)c(C(=O)NC3(C#N)CC3)c2)cn1 [I-T3-21] | 3.7 | 3.7 | 100 | 100 | 100 | 100 | 100 | 100 | 100 | 100 | – | – | – | – | 90 | 100 | 100 | 100 | –
O=C(NC1CC1)c1cc(-c2cnn(-c3c(Cl)cc(C(F)(C(F)(F)F)C(F)(F)F)cc3Cl)c2)cnc1Cl [I-T3-42] | 3.8 | 3.8 | 100 | 100 | 100 | 100 | 100 | 100 | 100 | 100 | – | – | – | – | 90 | 100 | 100 | 100 | –
N#CC1(NC(=O)c2cc(-c3cnn(-c4c(Cl)cc(C(F)(C(F)(F)F)C(F)(F)F)cc4Cl)c3)cnc2Cl)CC1 [I-T3-43] | 3.8 | 3.8 | 80 | 100 | 100 | 100 | 100 | 100 | 100 | 100 | – | – | – | – | 100 | 100 | 100 | 100 | –
CCc1cc(C(F)(C(F)(F)F)C(F)(F)F)cc(C)c1-n1cc(-c2ccc(Cl)c(C(=O)NC3CC3)c2)cn1 [I-T3-44] | 4.7 | 4.7 | 100 | 100 | 100 | 100 | 100 | 100 | 100 | – | – | – | – | – | 100 | 100 | 100 | 100 | –
N#CC1(NC(=O)c2cc(-c3cnn(-c4ccc(C(F)(C(F)(F)F)C(F)(F)F)cc4C(F)(F)F)c3)ccc2Cl)CC1 [I-T3-53] | 4.3 | 4.3 | 100 | – | 80 | 100 | 100 | 100 | 100 | 100 | 90 | 100 | 100 | 100 | – | – | – | – | –
Cc1cc(C(F)(C(F)(F)F)C(F)(F)F)cc(C(F)(F)F)c1-n1cc(-c2ccc(Cl)c(C(=O)NC3CC3)c2)cn1 [I-T3-54] | 4.4 | 4.4 | 100 | 100 | 100 | 100 | 100 | 100 | 100 | 100 | 100 | 100 | 100 | 100 | – | – | – | – | –
Cc1cc(C(F)(C(F)(F)F)C(F)(F)F)cc(C(F)(F)F)c1-n1cc(-c2ccc(Cl)c(C(=O)NC3(C#N)CC3)c2)cn1 [I-T3-55] | 4.3 | 4.3 | 100 | 100 | 100 | 100 | 100 | 100 | 100 | 100 | 100 | 100 | 100 | 100 | – | – | – | – | –
Cc1cc(C(F)(C(F)(F)F)C(F)(F)F)cc(Cl)c1-n1cc(-c2ccc(Cl)c(C(=O)NC3(C#N)CC3)c2)cn1 [I-T3-64] | 4.2 | 4.2 | – | 100 | 100 | 100 | 100 | 100 | 100 | 100 | 90 | 100 | 100 | 100 | – | – | – | – | efficacy (Rhipicephalus sanguineus; application rate 0.2 μg/cm2): 80%
N#CC1(NC(=O)c2cc(-c3cnn(-c4c(Br)cc(C(F)(C(F)(F)F)C(F)(F)F)cc4C(F)(F)F)c3)ccc2Cl)CC1 [I-T3-155] | – | – | 100 | 100 | 100 | 100 | 100 | 100 | 100 | 100 | – | 100 | 100 | 100 | – | – | – | – | logP^a) ([1]; reversed-phase column (C18)): 4.4; log P ([1]; HPLC-MS, reversed-phase column (C18), Table I-T3): 4.4
Cc1cc(C(F)(C(F)(F)F)C(F)(F)F)cc(C)c1-c1cnn(-c2cnc(Cl)c(C(=O)NC3CC3)c2)c1 [I-T4-3, 2-chloro-N-cyclopropyl-5-[4-[2,6-dimethyl-4-[1,2,2,2-tetrafluoro-1-(trifluoromethyl)ethyl]phenyl]pyrazol-1-yl]pyridine-3-carboxamide] | – | – | 100 | 100 | 100 | – | 100 | – | – | – | 90 | – | – | – | – | – | – | – | logP ([1]; HPLC, C18 reversed phase, acetonitrile/water with formic acid, EEC Directive 79/831 Annex V.A8): 4.4; pest or weed control at 0.02 mg (Boophilus microplus; Rhipicephalus microplus, 168 h, read-out: efficacy (laying of fertile eggs)): 100%
